Source: US20230026969A1, “Oligopeptide, Testing Kit Thereof And Medical Composition Thereof” (China Medical University, priority 2019, published 2023)

Experiments:
OA cartilage [1] = test: Intravital two-photon imaging of rhodamine-labeled peptides injected into rat joints; assay type: in vivo; settings: for rhodamine fluorescence (red dots) in cartilage: intra-articular, two-photon microscopy
Procedure: The OA in rat model was established as previous described with slightly modification. In brief, the male SD rats≅300 grams in weight were used in this study. All animal experiments were approved by the China Medical University Committee for the Use and Care of Animals. Rats were kept under standard laboratory conditions (temperature 24° C., 12 h light-dark cycle), fed standard diet and drank tap water. Rats were anesthetized with 2.5% isofluorane (Abott, USA) in 70 ml/min flow rate before every injection. Rat joint OA was induced in the right knees in each group by injecting 0.2 ml of 4% papain solution (Sigma-Aldrich, USA) with 0.1 ml of 0.03 M cysteine (Sigma-Aldrich, USA) as activator. Same amount of saline was injected into the left knees in each group. Injection was repeated on the fourth and seventh days, respectively, and two weeks after the last papain injection, rat knees were removed for histological analysis to confirm the formation of OA. The established OA model in rats was further used in the following experiments for intraarticular injection.
The rhodamine-labeled C5-24 and scrambled peptides were separately injected into rat joints without (control) or with enzyme-induced OA. The C5-24 and scrambled peptides were chemically synthesized as accordingly (ABI, USA), modified with Biotin-PEG2-Iodoacetyl bridge linker (Thermo Fisher Scientific, USA) in HEPES buffer pH 8.0 through click reaction, further linked with avidin labeled rhodamine (Jacksonlmmuno, USA) and subjected to dialysis in ddH2O in M.W. 4K cut-off to remove the unlabeled rhodamine, further lyophilized and stored in −20° C. Aliquots of 1 μg rhodamine-labeled peptides in 40 μl PBS were used for intraarticular injection with using 30 G syringes.
Rat Knees were removed at 1-day post-injection, and both femoral condyles and tibias were cleaned thoroughly, immersed in PBS and sophisticatedly attached on 3.5 cm dish for 2-photon microscopic observation. The microscope system was operated using a near-infrared femtosecond laser (Mira 900, Coherent, USA) at the central wavelength of 810 nm, 76 MHz pulse repetition rate, and 200 fs pulse width for imaging. […] Thus, the wavelength of SHG from collagen fibers is 405 nm, while the TPEF from collagen, elastin, FAD, and NADH is approximately ranging from 450 to 650 nm. All images were obtained by a laser scanning unit (Fluoview 300, Olympus, Japan), a pair of two objective lenses for both lasers focusing and collection of photons (UPlanSApo 20×/0.75, Olympus, Japan), and two photomultiplier tubes respectively for SHG and TPEF detection (R3896, Hamamatsu, Japan). SHG and TPEF were filtered from the intense excitation laser background by a combination of band-pass filter (FF01-405/10, Semrock, USA) and color glass (BG39, Schott, Germany). And, then splitted by a dichroic mirror (FF435-Di01, Semrock, USA) and forward detected. […] Only the extinction ratio of linear polarization larger than 50:1 and the ellipticity of circular polarization (Imax/Imin) less than 1.1 after the focusing objective lens can then be used for the following two-photon imaging. The acquired images were mainly processed and analyzed with ImageJ/FiJi software (National Institutes of Health, Bethesda, Md., USA).

OA cartilage [2] = test: Immunostaining of human OA tissue sections with phage clones: cartilage; assay type: binding; settings: for binding activity to cartilage (DAB intensity): HRP-labeled phage clones
Description: (§1) To examine localization of the targeting phages bound to articular tissues, human OA cartilage specimens were used for examination. Paraffin-embedded human OA tissue, synovium, and meniscus sections were retrieved from specimens of human OA surgical treatment under the approval of the Institutional Review Board of China Medical University Hospital (IRB no. CMUH108-REC1-046 and T-CMU-23728). Written informed consent was obtained, and all human tissue samples were coded for anonymity. All sections were dried, deparaffinized and rehydrated by standard protocols, and subsequently incubated with C5-87, C5-66, C5-83, C5-91, C5-24, E5-8, and C5-46 phage clones, or the control phage (5×10^8 pfu/μl). After washing, the sections were treated with anti-M13 mouse mAb (GE Healthcare) for 1 hour at room temperature. Following several washing steps, a biotin-free super sensitive polymer-HRP detection system (Biogenex, Fremont, Calif., USA) was used to detect immunoreactivity. The slides were lightly counterstained with hematoxylin, mounted with Aquatex (Merck, Darmstadt, Germany), and examined by light microscopy.

meniscus = test: Immunostaining of human OA tissue sections with phage clones: meniscus; assay type: binding; settings: HRP-labeled phage clones
Description: as §1

synovium = test: Immunostaining of human OA tissue sections with phage clones: synovium; assay type: binding; settings: HRP-labeled phage clones
Description: as §1

hPi-GL = test: Immunocytofluorescent staining of phage clones on hPi-GL chondrocyte cell line; assay type: cell-based, human; settings: phage clones on fixed hPi-GL cells
Procedure: For examination of those phage clones, slide-cultured hPi-GL cells were fixed with 4% paraformaldehyde in PBS at room temperature for 15 mins, washed with PBS and permeabilized with 0.1% Triton X-100 at room temperature for 30 mins, blocked for nonspecific binding with 1% BSA/PBST. The slide-cultured hPi-GL cells were separately incubated with 4×10^8 pfu, 8×10^8 pfu, and […] selected phage clones at 4° C. for 1 hour. After removing the unbound phages by washing, the cells were incubated with anti-M13 mouse mAb (GE Healthcare, Milwaukee, Wis., USA) as the primary antibody and R-Phycoerythrin-AffiniPure F(ab′)2 fragment goat anti-mouse IgG (Jackson ImmunoResearch Inc.) as the secondary antibody at room temperature for 1 hour, respectively. Then, washed with PBST, and counterstained with Hoechst 33258 (1 μg/ml; Sigma-Aldrich) at room temperature for 10 mins. The cells were analyzed for phage binding and localization by fluorescence using confocal microscopy (Zeiss LSM 700).

[3] = rhodamine-labeled peptide, OA cartilage
[4] = rhodamine-labeled peptide, control cartilage

## DYLWQYPDITWH [scrambled peptide, contains all the same amino acids as the original peptide but in new random order, reference compound]
OA cartilage [1]; [3]
  rhodamine fluorescence (red dots) in cartilage: sparse red dots
OA cartilage [1]; [4]
  rhodamine fluorescence (red dots) in cartilage: sparse red dots
OA cartilage [1]; scrambled control peptide
  ability to bind to OA cartilage: not able to bind to OA cartilage

## D L Q Y W Y P I W D T H (DLQYWYPIWDTH; binding to collagen XII; DOMAIN (5)..(9); DOMAIN (10)..(12)) [C5-24, 1, from phage display]
OA cartilage [2]
  specificity for targeting the territorial region of OA cartilage: best specificity
  binding activity to cartilage (DAB intensity): superior binding activity
meniscus
  binding activity to the meniscus (DAB intensity): no binding activity
synovium
  binding activity to the synovium (DAB intensity): no binding activity
hPi-GL
  binding to hPi-GL (immunocytofluorescent staining, M13-PE): specific and remarkable binding
OA cartilage [1]; all slices, FIG. 1b
  overall fluorescent peptides binding area, OA vs control cartilage: significant difference
OA cartilage [1]; [3]
  depth reached in the OA cartilage (z-axial plane): at least 50 μm
  rhodamine fluorescence (red dots) in cartilage: red dots were observed
OA cartilage [1]; [4]
  rhodamine fluorescence (red dots) in cartilage: sparse red dots

## D A Y W H P V W V H D P (DAYWHPVWVHDP; binding to collagen XII; DOMAIN (4)..(8)) [C5-91, 2, from phage display]
OA cartilage [2]
  binding activity to cartilage (DAB intensity): superior binding activity
meniscus
  binding activity to the meniscus (DAB intensity): no binding activity
synovium
  binding activity to the synovium (DAB intensity): no binding activity
hPi-GL
  binding to hPi-GL (immunocytofluorescent staining, M13-PE): specific and remarkable binding
